Laboratory results published in article PMC10873626, “Acceleration of infectious disease drug discovery and development using a humanized model of drug metabolism” (Proceedings of the National Academy of Sciences of the …, 2024).
≈ marks a conversion by molar mass, not a printed value. Like-named read-outs stand apart in the source and are kept apart here.

Assays:
[1] = hepatocytes
[2] = mouse, hepatocytes
[3] = mouse, hepatocytes; remark: listed apart in the source
[4] = test system: CYP; conditions: cited from earlier work
[5] = microsomes
[6] = Oral pharmacokinetics in 8HUM mice; conditions: female, mouse, whole blood
[7] = Oral pharmacokinetics in WT mice; conditions: female, mouse, whole blood
[8] = human, 100 mg BID; ref SI 8; cited from earlier work
[9] = mouse, microsomes
[10] = mouse, microsomes; remark: listed apart in the source
[11] = mouse, microsomes; remark: listed apart in the source
[12] = DDI: pretomanid PK after CYP3A4 inducer pre-treatment in WT mice; format: in vivo, mouse
Description: (§1) With the exception of quinidine PK, female mice were used in all experiments. Dose levels and schedules were as detailed in SI Appendix. Serial blood samples (10 µL) were taken from the tail vein at the timepoints shown, diluted into 9 volumes of Milli-Q water, and stored at −20 °C prior to bioanalysis. Samples from mice infected with T. cruzi were snap-frozen in liquid nitrogen and thawed three times before storage at −20 °C until bioanalysis. Samples from mice infected with M. tuberculosis (15 µL) were mixed with two volumes of Milli-Q and stored at −70 °C until bioanalysis. All non-compartmental analysis, modeling, and simulation of PK was carried out using Phoenix WinNonlin version 8.3.1.5014 (Certara), as described in SI Appendix.
(§2) Mouse hepatic microsomes were prepared by homogenization of freshly-isolated liver in ice-cold SET buffer (0.25 M sucrose, 5 mM EDTA, and 20 mM Tris-HCL, pH 7.4) to make a 10% (w/v) homogenate solution (9 ml SET buffer/1 g liver) using a Polytron PT-MR-2100 homogenizer. Liver homogenates were centrifuged at 2000 rpm (Sorvall RTH-250 rotor) for 10 minutes at 4 °C and the supernatant then centrifuged at 12000 rpm (Sorvall SS-34 rotor) for 20 minutes at 4 °C. The resulting supernatant was centrifuged at 29130 rpm (Sorvall TFT-45.6 rotor) for 90 minutes at 4 °C and the microsomal pellets were resuspended in ice-cold SET buffer for storage at –70 °C.
(§3) Primary hepatocytes were freshly prepared from 8HUM using a modified version of Charni-Natan and Goldstein’s STAR Protocol(1). Following termination by cervical dislocation and femoral vessel cut […]
(§4) canula (Merck) and the liver perfused using 30 mL Hanks Buffered Saline Solution (HBSS, -Ca 2+ -Mg2+, no phenol red, Gibco), containing 0.5 mM EDTA and 25 mM HEPES, running at a flow rate of 3 mL/min at approximately 37 °C. Subsequently, 10 mL HBSS digestion buffer (Ca2+ & Mg2+, no phenol red, Gibco), including 25 mM HEPES and 270 µL liberase (Merck) running at a flow rate of 3 mL/min and ~37 °C was then perfused. The final perfusion step utilised 30 mL HBSS digestion buffer containing 25 mM HEPES and 20 mg collagenase (Merck) at approximately 37 °C. The liver was excised, gall bladder removed and placed in a 10 cm petri dish where it was covered with 10 mL plating medium WME containing CM4000. The liver capsule was gently agitated with a glass rod and forceps to disperse the liver cells. Cells were then poured through a 100 µm nylon strainer (Falcon, Corning, NY, USA) into a 50 mL collection tube and topped up to 50 mL with plating medium at 37 °C. All solutions were perfused using a Miniplus peristaltic pump (Gilson, Middleton, WI, USA) and run through a 20 mL Intrafix Safeset bubble trap (Braun, Melsungen, Germany) to prevent potential blocking of vessels during perfusion. […]

[13] = test system: M. tuberculosis H37Rv; assay: Acute M. tuberculosis infection efficacy model in 8HUM (lung CFU); format: in vivo, Mycobacterium tuberculosis
[14] = test system: M. tuberculosis; conditions: cited from earlier work
[15] = human, in vivo; cited from earlier work
[16] = DDI: pretomanid PK after CYP3A4 inducer pre-treatment in 8HUM; format: in vivo, mouse (8HUM)
Description: as §1, §2, §3, §4

[17] = WT pre-treated with efavirenz (40 mg/kg once daily for three days)
[18] = WT pre-treated with rifampicin (2 mg/kg once, 24 hr prior)
[19] = 8HUM pre-treated with efavirenz (40 mg/kg once daily for three days)
[20] = 8HUM pre-treated with rifampicin (2 mg/kg once, 24 hr prior)

## CCOc1ccc2ccc(=O)oc2c1 [7-ethoxycoumarin]
[1]
  CLint, Human: 8.2 mL/min/g liver
[2]
  CLint, 8HUM: 13.8 mL/min/g liver
[3]
  CLint, WT: 39 mL/min/g liver

## CC1(C)S[C@@H]2[C@H](NC(=O)[C@H](N)c3ccc(O)cc3)C(=O)N2[C@H]1C(=O)O [Amoxicillin]
[4]
  CYP interaction: Inhibitor: 2C19

## CC(C)CN(C[C@@H](O)[C@H](Cc1ccccc1)NC(=O)O[C@H]1CCOC1)S(=O)(=O)c1ccc(N)cc1 [Amprenavir]
[4]
  CYP interaction: Inhibitor: 3A4

## CO[C@H]1O[C@@H]2O[C@@]3(C)CC[C@H]4[C@H](C)CC[C@@H]([C@H]1C)[C@@]24OO3 [Artemether]
[4]
  CYP interaction: Inhibitor: 3A4

## CC[C@H]1OC(=O)[C@H](C)[C@@H](O[C@H]2C[C@@](C)(OC)[C@@H](O)[C@H](C)O2)[C@H](C)[C@@H](O[C@@H]2O[C@H](C)C[C@H](N(C)C)[C@H]2O)[C@](C)(OC)C[C@@H](C)C(=O)[C@H](C)[C@@H](O)[C@]1(C)O [Clarithromycin]
[5]
  CLint, Human: 1.4 mL/min/g liver
[4]
  CYP interaction: Substrate: 3A4

## C[C@]1(COc2ccc(N3CCC(Oc4ccc(OC(F)(F)F)cc4)CC3)cc2)Cn2cc([N+](=O)[O-])nc2O1 [Delamanid]
[5]
  CLint, Human: 0.8 mL/min/g liver
[6]
  CL/F: 20.7 mL/min/kg
[7]
  CL/F: 110 mL/min/kg
[8]
  apparent volume of distribution (V/F): 11.9 L/kg
  oral clearance (CL/F): 9.12 mL/min/kg

## O=C(O)Cc1ccccc1Nc1c(Cl)cccc1Cl [Diclofenac]
[2]
  CLint, 8HUM: 1.8 mL/min/g liver

## CC[C@H]1OC(=O)[C@H](C)[C@@H](O[C@H]2C[C@@](C)(OC)[C@@H](O)[C@H](C)O2)[C@H](C)[C@@H](O[C@@H]2O[C@H](C)C[C@H](N(C)C)[C@H]2O)[C@](C)(O)C[C@@H](C)C(=O)[C@H](C)[C@@H](O)[C@]1(C)O [Erythromycin]
[5]
  CLint, Human: 3.3 mL/min/g liver
[1]
  CLint, Human: 0.5 mL/min/g liver
[2]
  CLint, 8HUM: 0.5 mL/min/g liver
[3]
  CLint, WT: 1.3 mL/min/g liver

## Cc1cc(C#N)cc(C)c1Oc1nc(Nc2ccc(C#N)cc2)nc(N)c1Br [Etravirine]
[5]
  CLint, Human: 1 mL/min/g liver

## CCCCN(CCCC)CCC(O)c1cc2c(Cl)cc(Cl)cc2c2cc(C(F)(F)F)ccc12 (stereo not drawn) [Halofantrine]
[5]
  CLint, Human: 1.7 mL/min/g liver
[4]
  CYP interaction: Substrate: 3A4

## CC(=O)NC[C@H]1CN(c2ccc(N3CCOCC3)c(F)c2)C(=O)O1 [Linezolid]
[9]
  CLint, CypC4KO: 0.5 mL/min/g liver
[10]
  CLint, 8HUM: 0.5 mL/min/g liver
[4]
  CYP interaction: Substrate: 3A4
[2]
  CLint, 8HUM: 0.5 mL/min/g liver
[11]
  CLint, WT: 0.5 mL/min/g liver

## OC(c1cc(C(F)(F)F)nc2c(C(F)(F)F)cccc12)C1CCCCN1 (stereo not drawn) [Mefloquine]
[9]
  CLint, CypC4KO: 0.5 mL/min/g liver
[5]
  CLint, Human: 0.5 mL/min/g liver
[1]
  CLint, Human: 0.5 mL/min/g liver
[2]
  CLint, 8HUM: 0.5 mL/min/g liver
[3]
  CLint, WT: 0.5 mL/min/g liver

## CO[C@H]1C[C@H](O[C@H]2[C@H](C)[C@@H](O[C@@H]3O[C@H](C)C[C@H](N(C)C)[C@H]3O)[C@@H](C)C[C@@]3(CO3)C(=O)[C@H](C)[C@@H](O)[C@@H](C)[C@@H](C)OC(=O)[C@@H]2C)O[C@@H](C)[C@@H]1O [Oleandomycin]
[9]
  CLint, CypC4KO: 50 mL/min/g liver
[5]
  CLint, Human: 18.5 mL/min/g liver
[4]
  CYP interaction: Inhibitor: 3A4

## CCOc1ccc(NC(C)=O)cc1 [Phenacetin]
[2]
  CLint, 8HUM: 1.3 mL/min/g liver

## CC[C@@H]([C@H](C)O)n1ncn(-c2ccc(N3CCN(c4ccc(OC[C@@H]5CO[C@@](Cn6cncn6)(c6ccc(F)cc6F)C5)cc4)CC3)cc2)c1=O [Posaconazole]
[10]
  CLint, 8HUM: 0.5 mL/min/g liver
[5]
  CLint, Human: 0.5 mL/min/g liver
[11]
  CLint, WT: 0.5 mL/min/g liver

## O=[N+]([O-])c1cn2c(n1)OC[C@@H](OCc1ccc(OC(F)(F)F)cc1)C2 [Pretomanid]
[10]
  CLint, 8HUM: 0.5 mL/min/g liver
[5]
  CLint, Human: 0.5 mL/min/g liver
[4]
  CYP interaction: Substrate: 3A4
[12]; [17]
  decrease in AUC of pretomanid: 65%
  decrease in Cmax of pretomanid: 31%
[12]; [18]
  decrease in AUC of pretomanid: 10%
  decrease in Cmax of pretomanid: 6%
[6]
  CL/F: 2.17 mL/min/kg
[13]; M. tuberculosis infection, once a day for 8 days
  efficacy in 8HUM compared with WT (lung CFU): less effective in 8HUM
[7]
  CL/F: 4.43 mL/min/kg
[14]
  minimum inhibitory concentration: 0.06 µg/mL (≈ 0.167 µM)
[15]
  decrease in AUC of pretomanid: 35%
  decrease in Cmax of pretomanid: 28%
[11]
  CLint, WT: 0.5 mL/min/g liver
[16]; [19]
  decrease in AUC of pretomanid: 54%
  decrease in Cmax of pretomanid: 14%
[16]; [20]
  decrease in AUC of pretomanid: 51%
  decrease in Cmax of pretomanid: 25%

## [H]/N=C(\N/C(=N/[H])Nc1ccc(Cl)cc1)NC(C)C [Proguanil]
[10]
  CLint, 8HUM: 0.5 mL/min/g liver
[5]
  CLint, Human: 0.3 mL/min/g liver
[4]
  CYP interaction: Substrate: 2C19
[11]
  CLint, WT: 0.5 mL/min/g liver

## C=C[C@H]1C[N@@]2CC[C@H]1C[C@@H]2[C@@H](O)c1ccnc2ccc(OC)cc12 [Quinidine]
[4]
  CYP interaction: Inhibitor: 2D6

## CO[C@H]1/C=C/O[C@@]2(C)Oc3c(C)c(O)c4c(O)c(c(/C=N/N5CCN(C)CC5)c(O)c4c3C2=O)NC(=O)/C(C)=C\C=C\[C@H](C)[C@H](O)[C@@H](C)[C@@H](O)[C@@H](C)[C@H](OC(C)=O)[C@@H]1C [Rifampicin]
[5]
  CLint, Human: 0.8 mL/min/g liver

## CO[C@H]1/C=C/O[C@@]2(C)Oc3c(C)c(O)c4c(O)c(c(/C=N/N5CCN(C6CCCC6)CC5)c(O)c4c3C2=O)NC(=O)/C(C)=C\C=C\[C@H](C)[C@H](O)[C@@H](C)[C@@H](O)[C@@H](C)[C@H](OC(C)=O)[C@@H]1C [Rifapentine]
[4]
  CYP interaction: Inducer: 2C8, 2C9

## CC(C)c1nc(CN(C)C(=O)N[C@H](C(=O)N[C@@H](Cc2ccccc2)C[C@H](O)[C@H](Cc2ccccc2)NC(=O)OCc2cncs2)C(C)C)cs1 [Ritonavir]
[5]
  CLint, Human: 6.6 mL/min/g liver

## C[C@H](Cn1cnc2c(N)ncnc21)OCP(=O)(O)O [Tenofovir]
[4]
  CYP interaction: Substrate: 1A2

## COc1c(N2C[C@@H]3CCCN[C@@H]3C2)c(F)cc2c(=O)c(C(=O)O)cn(C3CC3)c12 [moxifloxacin]
[13]; 8HUM, day 9, 30 mg/kg QD
  log CFU reduction in the lungs compared to the control group: 3.9 log CFU
